Source: the supplement of paper PMC11061612

Tests used:
Experiment in all cases: Bliss excess, mean over the matrix (fraction); higher = more synergy
[1] = test system: TE-9 (Esophageal Squamous Cell Carcinoma)
Procedure, shortened: (§1)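 Bliss excess equals the observed combination effect minus the expected value EA + EB − EA·EB, where EA and EB are the effects of each agent alone. Combination Emax is the second-highest inhibition within the matrix. Inhibition was scaled from CellTiter-Glo 2.0 luminescence, with 0 set by vehicle wells and 1 by blank wells, after 72 hours of two-drug dosing of cells plated in 1536-well plates.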

[2] = test system: KYSE-520 (Esophageal Squamous Cell Carcinoma)
Procedure, shortened: as §1

[3] = test system: HOS (Osteosarcoma)
Procedure, shortened: as §1

[4] = test system: EC-GI-10 (Esophageal Squamous Cell Carcinoma)
Procedure, shortened: as §1

[5] = test system: CaR-1 (Colorectal Carcinoma)
Procedure, shortened: as §1

[6] = test system: B-CPAP (Thyroid Gland Carcinoma)
Procedure, shortened: as §1

[7] = test system: MFE-296 (Endometrial Carcinoma)
Procedure, shortened: as §1

[8] = test system: HT-1376 (Bladder Carcinoma)
Procedure, shortened: as §1

[9] = test system: Ramos-2G6-4C10 (Burkitt's Lymphoma)
Procedure, shortened: as §1

[10] = test system: Daoy (Other Solid Carcinomas)
Procedure, shortened: as §1

[11] = test system: KP-1N (Pancreatic Carcinoma)
Procedure, shortened: as §1

[12] = test system: TCCSUP (Bladder Carcinoma)
Procedure, shortened: as §1

[13] = test system: CCRF-CEM (T-Lymphoblastic Leukemia)
Procedure, shortened: as §1

[14] = test system: AGS (Gastric Carcinoma)
Procedure, shortened: as §1

[15] = test system: SNU-5 (Gastric Carcinoma)
Procedure, shortened: as §1

[16] = test system: HO-1-N-1 (Oral Cavity Carcinoma)
Procedure, shortened: as §1

[17] = test system: HCC-78 (Lung Adenocarcinoma)
Procedure, shortened: as §1

[18] = test system: COLO-205 (Colorectal Carcinoma)
Procedure, shortened: as §1

[19] = test system: Calu-3 (Lung Adenocarcinoma)
Procedure, shortened: as §1

[20] = test system: LNCaP-Clone-FGC (Prostate Carcinoma)
Procedure, shortened: as §1

Row | Structure (SMILES) | Bliss excess [1] | Bliss excess [2] | Bliss excess [3] | Bliss excess [4] | Bliss excess [5] | Bliss excess [6] | Bliss excess [7] | Bliss excess [8] | Bliss excess [9] | Bliss excess [10] | Bliss excess [11] | Bliss excess [12] | Bliss excess [13] | Bliss excess [14] | Bliss excess [15] | Bliss excess [16] | Bliss excess [17] | Bliss excess [18] | Bliss excess [19] | Bliss excess [20]
1 | COc1cccc2c1C(=O)c1c(O)c3c(c(O)c1C2=O)C[C@@](O)(C(=O)CO)C[C@@H]3O[C@H]1C[C@H](N)[C@H](O)[C@H](C)O1 [Doxorubicin] + Cc1cc2ncnn2cc1Nc1ncc2c(n1)n(C1CCOCC1)c(=O)n2C [AZD7648] (first compound max 1 µM, 7x7, partner max 10 µM) | -0.0393 | -0.0086 | 0.145 | 0.0887 | 0.0309 | 0.106 | -0.0119 | -0.0544 | 0.0786 | 0.0851 | 0.0574 | 0.0282 | 0.123 | 0.109 | 0.007 | 0.0808 | 0.049 | -0.0041 | -0.0006 | 0.0417
2 | COc1cc2ncnc(Nc3ccc(F)c(Cl)c3)c2cc1OCCCN1CCOCC1 [Gefitinib] + CC(C)n1c(=O)n(C)c2cnc3cc(F)c(-c4ccc(OCCCN5CCCCC5)nc4)cc3c21 [AZD1390] (first compound max 10 µM, 7x7, partner max 0.3 µM) | -0.0522 | -0.043 | -0.0491 | -0.0526 | -0.0812 | -0.0752 | -0.0483 | -0.0387 | -0.0626 | -0.0373 | -0.0625 | -0.0593 | -0.0419 | -0.0871 | -0.0887 | -0.0506 | -0.0525 | -0.0578 | -0.048 | -0.0491
3 | CS(=O)(=O)CCNCc1ccc(-c2ccc3ncnc(Nc4ccc(OCc5cccc(F)c5)c(Cl)c4)c3c2)o1 [Lapatinib] + C[C@@H](Oc1cc(-c2cnn(C3CCNCC3)c2)cnc1N)c1c(Cl)ccc(F)c1Cl [Crizotinib] (first compound max 10 µM, 7x7, partner max 10 µM) | -0.0194 | -0.0352 | 0.0138 | -0.0379 | -0.0084 | -0.0393 | -0.0288 | -0.0343 | -0.113 | -0.0297 | -0.0435 | -0.0611 | -0.0185 | 0.0118 | 0.0306 | -0.0493 | -0.0289 | -0.0261 | 0.0052 | -0.0575
4 | CC(=O)c1c(C)c2cnc(Nc3ccc(N4CCNCC4)cn3)nc2n(C2CCCC2)c1=O [Palbociclib] + CC1(C)CCC(CN2CCN(c3ccc(C(=O)NS(=O)(=O)c4ccc(NCC5CCOCC5)c([N+](=O)[O-])c4)c(Oc4cnc5[nH]ccc5c4)c3)CC2)=C(c2ccc(Cl)cc2)C1 [Venetoclax] (first compound max 10 µM, 7x7, partner max 1 µM) | -0.035 | -0.0442 | -0.0218 | -0.0031 | -0.0507 | 0.0002 | -0.0262 | -0.0453 | -0.106 | 0.005 | -0.0396 | -0.0508 | -0.008 | -0.0493 | 0.0453 | -0.0322 | -0.0244 | -0.0065 | -0.0252 | 0.0267
5 | CC(=O)c1c(C)c2cnc(Nc3ccc(N4CCNCC4)cn3)nc2n(C2CCCC2)c1=O [Palbociclib] + Cc1c2c(nn1C)CSCc1cc(n(C)n1)CSc1cc(c3ccccc3c1)OCCCc1c(C(=O)O)n(C)c3c-2c(Cl)ccc13 [AZD5991] (first compound max 10 µM, 7x7, partner max 1 µM) | -0.0334 | -0.0686 | -0.0182 | 0.0305 | -0.0621 | -0.0722 | -0.0142 | -0.0073 | -0.0226 | -0.0112 | -0.0384 | -0.0395 | -0.014 | -0.04 | -0.0206 | -0.0554 | -0.0015 | -0.0487 | -0.0039 | 0.0049
6 | CC(=O)c1c(C)c2cnc(Nc3ccc(N4CCNCC4)cn3)nc2n(C2CCCC2)c1=O [Palbociclib] + Cn1cnc2c(F)c(Nc3ccc(Br)cc3Cl)c(C(=O)NOCCO)cc21 [Selumetinib] (first compound max 10 µM, 7x7, partner max 10 µM) | 0.0099 | 0.0617 | 0.0109 | -0.0407 | -0.0229 | 0.0321 | -0.0574 | -0.047 | -0.023 | -0.0082 | -0.0715 | -0.0438 | 0.0385 | -0.0123 | 0.0031 | 0.0927 | -0.0189 | -0.081 | -0.0095 | 0.0237
7 | COc1cccc(OCCCN)c1-c1cc(Nc2cnc(C#N)cn2)n[nH]1 [Prexasertib] + C=CCn1c(=O)c2cnc(Nc3ccc(N4CCN(C)CC4)cc3)nc2n1-c1cccc(C(C)(C)O)n1 [AZD1775] (first compound max 1 µM, partner max 1 µM) | 0.2 | 0.0142 | 0.0888 | 0.077 | 0.086 | 0.154 | 0.116 | -0.0538 | 0.112 | 0.0573 | 0.0763 | 0.0389 | 0.0186 | 0.195 | 0.0491 | 0.104 | 0.0774 | 0.125 | 0.0255 | -0.0172
8 | COc1cccc(OCCCN)c1-c1cc(Nc2cnc(C#N)cn2)n[nH]1 [Prexasertib] + CCc1c2c(nc3ccc(O)cc13)-c1cc3c(c(=O)n1C2)COC(=O)[C@]3(O)CC [SN-38] (first compound max 1 µM, 7x7, partner max 0.3 µM) | 0.0438 | 0.048 | 0.0409 | 0.0252 | -0.053 | 0.0695 | 0.0106 | -0.0265 | 0.0754 | 0.0128 | 0 | 0.0743 | -0.0078 | -0.0467 | -0.0085 | -0.0054 | -0.0337 | 0.153 | -0.0003 | -0.0782
9 | COc1cccc(OCCCN)c1-c1cc(Nc2cnc(C#N)cn2)n[nH]1 [Prexasertib] + CN(C)CCCOc1ccc(-c2ccc3ncc4c(c3c2)n(C2CCOCC2)c(=O)n4C)cn1 [AZD0156] (first compound max 1 µM, 7x7, partner max 1 µM) | -0.0307 | -0.0211 | -0.0434 | -0.0056 | -0.0442 | -0.0156 | -0.0163 | -0.007 | 0.0693 | 0.0208 | 0.0236 | -0.0021 | -0.058 | -0.0052 | -0.0703 | -0.0077 | -0.0463 | 0.061 | -0.0668 | -0.0374
10 | COc1cccc(OCCCN)c1-c1cc(Nc2cnc(C#N)cn2)n[nH]1 [Prexasertib] + C[C@@H]1COCCN1C2=NC(=NC(=C2)C3(CC3)[S@](=N)(=O)C)C4=C5C=CNC5=NC=C4 [AZD6738] (first compound max 1 µM, 7x7, partner max 10 µM) | -0.0233 | -0.0696 | 0.0261 | 0.0193 | 0.0097 | -0.0345 | -0.0456 | -0.0105 | -0.0191 | 0.0032 | 0.0331 | -0.0245 | -0.0013 | 0.0164 | -0.0371 | 0.0115 | 0.0318 | 0.0369 | -0.0108 | -0.0427
11 | COc1cccc(OCCCN)c1-c1cc(Nc2cnc(C#N)cn2)n[nH]1 [Prexasertib] + Cc1cc2ncnn2cc1Nc1ncc2c(n1)n(C1CCOCC1)c(=O)n2C [AZD7648] (first compound max 1 µM, 7x7, partner max 10 µM) | -0.0322 | -0.0177 | -0.0393 | -0.0144 | 0.0141 | 0.0049 | -0.0093 | -0.0373 | 0.0025 | -0.009 | -0.0207 | -0.0182 | -0.0076 | -0.018 | -0.0111 | 0.0096 | -0.0841 | 0.0227 | 0.0049 | -0.0617
12 | COc1cccc(OCCCN)c1-c1cc(Nc2cnc(C#N)cn2)n[nH]1 [Prexasertib] + O=C(c1cc(Cc2n[nH]c(=O)c3ccccc23)ccc1F)N1CCN(C(=O)C2CC2)CC1 [Olaparib] (first compound max 1 µM, 7x7, partner max 10 µM) | -0.0425 | -0.111 | -0.0168 | -0.0253 | -0.0635 | -0.007 | -0.0516 | -0.0976 | -0.0875 | 0.0261 | 0.0018 | -0.006 | 0.0024 | 0.0033 | -0.0633 | 0.0205 | -0.0733 | -0.0301 | -0.0558 | -0.049
13 | COc1cc2c(cc1OCCCCCOc1cc3c(cc1OC)C(=O)N1C=C(C)C[C@H]1C=N3)N=C[C@@H]1CC(C)=CN1C2=O [SG3199] + O=C(c1cc(Cc2n[nH]c(=O)c3ccccc23)ccc1F)N1CCN(C(=O)C2CC2)CC1 [Olaparib] (first compound max 0.001 µM, 7x7, partner max 10 µM) | -0.0269 | -0.0137 | -0.0232 | -0.011 | -0.0429 | 0.0434 | -0.0639 | -0.0503 | -0.0122 | -0.0171 | 0.0163 | -0.0281 | -0.0045 | -0.0061 | -0.0105 | -0.0138 | -0.0294 | -0.0256 | -0.0266 | 0.0189
14 | CCc1c2c(nc3ccc(O)cc13)-c1cc3c(c(=O)n1C2)COC(=O)[C@]3(O)CC [SN-38] + CN(C)CCCOc1ccc(-c2ccc3ncc4c(c3c2)n(C2CCOCC2)c(=O)n4C)cn1 [AZD0156] (first compound max 0.3 µM, 7x7, partner max 1 µM) | 0.0065 | -0.0071 | 0.0114 | 0.0134 | 0.0109 | 0.0105 | -0.0007 | -0.0547 | 0.0361 | 0.0666 | 0.0531 | 0.0859 | 0.0508 | -0.0061 | -0.0237 | 0.0488 | -0.0066 | 0.0073 | 0.0092 | -0.0804
15 | C[C@@H](c1ccc2nccn2c1)n1nnc2ncc(-c3cnn(C)c3)nc21 [Savolitinib] + CC1(C)CCC(CN2CCN(c3ccc(C(=O)NS(=O)(=O)c4ccc(NCC5CCOCC5)c([N+](=O)[O-])c4)c(Oc4cnc5[nH]ccc5c4)c3)CC2)=C(c2ccc(Cl)cc2)C1 [Venetoclax] (first compound max 1 µM, 7x7, partner max 1 µM) | -0.0307 | -0.0774 | -0.0243 | -0.0547 | -0.0617 | -0.0453 | -0.0427 | -0.0443 | -0.0183 | -0.0185 | -0.0646 | -0.0551 | -0.0527 | -0.0729 | -0.0585 | -0.0105 | -0.0514 | -0.0675 | -0.0347 | -0.0593
